“Also recorded” adds a separate entry of the source.
Tests used:
[1] = system: TNF-induced reduction of grip strength; experiment: biceps muscle grip strength after TNF-induced muscle pain; type: in vivo, rat; conditions: for reversal of TNF-induced reduction of grip strength: TNF 1 μg i.m. biceps brachii
Description: (§1) The model used in this example is applicable to musculoskeletal pain which occurs in fibromyalgia, myofascial pain syndrome or back pain. For comparative purposes, the non-opioid analgesic dipyrone (metamizol) and the anticonvulsants pregabalin and gabapentin were included in the study.
(§2) Adult male Sprague Dawley rats with a body weight of 250 g to 300 g were used (supplier: Charles River, Sulzfeld, Germany). Animals were group-housed (3 animals per cage) and maintained in a room with controlled temperature (21-22° C.) and a reversed light-dark cycle (12 h/12 h) with food and water available ad libitum. All experiments were approved by the Bavarian State animal experimentation committee and carried out in accordance with its regulations.
(§3) Recombinant rat tumor necrosis factor alpha (herein referred to as TNF) was obtained from R&D Systems, Minneapolis, Minn., U.S.A. TNF was diluted in 0.9% NaCl and used in a concentration of 1 μg in 50 μl. Injections were performed in short halothane narcosis with a 30 g needle bilaterally into the gastrocnemius or into the biceps brachii muscle. All rats were used to the behavioral tests before injections and baseline values were recorded over three test days.
Grip strength of the forelimbs was tested with a digital grip force meter (DFIS series, Chatillon, Greensboro, N.C., U.S.A.). The rat was positioned to grab the grid with the forelimbs and was gently pulled so that the grip strength could be recorded. Means of three trials were calculated. The effect of the TNF treatment was calculated for each animal separately and only animals with a significant TNF effect were included for further analysis.
Rats were injected with TNF into the biceps brachii muscle at 8 am. Six hours later, grip strength of the forelimbs was tested with a digital grip force meter. Test drug was administered, and grip strength was again tested after 30 to 60 minutes.
(§4) The rats, initially 10 per group, were treated with either 3, 10 or 30 mg/kg lacosamide, 2 mg/kg metamizol, 30 or 100 mg/kg pregabalin, 100 mg/kg gabapentin, or the NaCl vehicle, i.p. (intraperitoneally). Volume of i.p. injections was 0.5 ml. A pilot study was performed to confirm that i.m. (intramuscular) injection of 1 μg TNF into the gastrocnemius muscle was sufficient to induce pressure hyperalgesia.
(§5) Data are shown in graphs displaying means and standard errors of the means (SEM). Pre- and post-treatment data were compared using ANOVA (analysis of variance) and a Tukey post hoc test. Means of treatment groups were compared using a one-way ANOVA and Dunnett's post hoc test. Maximal possible effects (MPE) were calculated for all types of treatment.

[2] = system: formalin-induced flinching and licking of the affected paw; experiment: rat formalin paw test (late phase); type: in vivo
Method: Rats were given an intraplantar injection of 5% formalin (50 μl) into the posterior left paw. This treatment induces a recognizable flinching and licking response of the affected paw in control animals. The number of flinches was counted for 15 minutes, beginning 20 minutes after injection of formalin. The time spent licking the affected paw was also recorded.
Male Rj: Wistar (Han) rats, 10 per group, weighing 100-130 g at the beginning of the experiments were studied per group. The test was performed blind.
Lacosamide (20 mg/kg), gabapentin (50 and 100 mg/kg), combinations of lacosamide (20 mg/kg) with gabapentin (50 and 100 mg/kg), and vehicle were administered i.p. 10 minutes before injection of formalin.
Lacosamide (10 and 20 mg/kg), morphine (2 and 4 mg/kg), combinations of lacosamide (10 and 20 mg/kg) with morphine (2 and 4 mg/kg), and vehicle were administered i.p. 10 minutes before injection of formalin.
Lacosamide (10 mg/kg), duloxetine (8 mg/kg), a combination of lacosamide (10 mg/kg) with duloxetine (8 mg/kg), and vehicle were administered i.p. 10 minutes before injection of formalin.
Lacosamide (10 and 20 mg/kg), memantine (4 and 8 mg/kg), combinations of lacosamide (10 and 20 mg/kg) with memantine (4 and 8 mg/kg), and vehicle were administered i.p. 10 minutes before injection of formalin.
Lacosamide (10 and 20 mg/kg), naproxen (8 and 16 mg/kg), combinations of lacosamide (10 and 20 mg/kg) with […] (8 and 16 mg/kg), and vehicle were administered i.p. 10 minutes before injection of formalin. Morphine (8 mg/kg) was included as a comparative treatment.

[3] = system: muscle pressure hyperalgesia induced by TNF; experiment: TNF-induced muscle pressure hyperalgesia (Randall-Selitto, gastrocnemius muscle); type: in vivo, rat; conditions: for reversal of muscular mechanical hyperalgesia (withdrawal threshold to muscle pressure): TNF 1 μg i.m. gastrocnemius, 30 mg/kg
Description: as §1, §2, §3
Mechanical withdrawal thresholds to muscle pressure were measured with an analgesimeter (Ugo Basile, Comerio, Italy). The rat was allowed to crawl into a sock which helps the rat to relax. The hind limbs were positioned such that an increasing pressure could be applied onto the gastrocnemius muscle (maximum 250 g). The pressure needed to elicit withdrawal was recorded. Means of 3 trials for each hind limb were calculated (interstimulus interval of >30 sec). Only animals with a significant TNF effect were included for further analysis.
Rats were injected with TNF into the gastrocnemius muscle at 2 pm. Eighteen hours later, rats were tested for pressure hyperalgesia pre- and post-administration of the test drug. Rats were tested for pressure hyperalgesia 30 to 60 minutes after drug administration.
as §4, §5

[4] = system: monosodium iodoacetate-induced tactile allodynia; experiment: monosodium iodoacetate-induced tactile allodynia (von Frey filaments); type: in vivo, rat
[5] = system: monosodium iodoacetate-induced mechanical hyperalgesia; experiment: monosodium iodoacetate-induced mechanical hyperalgesia (Randall-Selitto paw pressure); type: in vivo, rat; conditions: for mechanical hyperalgesia (paw pressure withdrawal threshold): day 7
[6] = Example 3, lacosamide 20 mg/kg i.p.
[7] = Example 4, lacosamide 10 mg/kg i.p.
[8] = Example 4, lacosamide 20 mg/kg i.p.
[9] = Example 5, lacosamide 10 mg/kg i.p.
[10] = Example 6, lacosamide 10 mg/kg i.p.
[11] = Example 6, lacosamide 20 mg/kg i.p.
[12] = Example 7, lacosamide 10 mg/kg i.p.
[13] = Example 7, lacosamide 20 mg/kg i.p.

## COC[C@@H](NC(C)=O)C(=O)NCc1ccccc1 [Lacosamide, (R)-2-acetamido-N-benzyl-3-methoxypropionamide]
[1]; 10 mg/kg i.p.
  MPE (maximal possible effect) on biceps muscle grip strength, versus vehicle: significantly different from vehicle
[1]; 30 mg/kg i.p.
  MPE (maximal possible effect) on biceps muscle grip strength, versus vehicle: significantly different from vehicle
  reversal of TNF-induced reduction of grip strength: significant reversal
[1]; 10 mg/kg i.p., 10 mg/kg
  reversal of TNF-induced reduction of grip strength: significant reversal; also recorded: reversed the effect of TNF
[1]; grip strength test
  potency compared with pregabalin and gabapentin: more potent
[2]; [6]
  Licking time % change (a): compared with vehicle control: −34%
  Licking time (seconds) mean ± SEM: 146.9 ± 23.8 s
  No. of flinches % change (a): compared with vehicle control: −33%
  No. of flinches mean ± SEM: 85.7 ± 14.3
  decrease in the number of flinches as compared with vehicle controls: 33%
  decrease in the time spent licking as compared with vehicle controls: 34%
[2]; [7]
  Licking time % change (a): compared with vehicle control: −28%
  Licking time (seconds) mean ± SEM: 210.1 ± 22.7 s
  No. of flinches % change (a): compared with vehicle control: +22%
  No. of flinches mean ± SEM: 182.7 ± 25.9
  decrease in the time spent licking as compared with vehicle controls: 28%
  increase in the number of flinches as compared with vehicle controls: 22%
[2]; [8]
  Licking time % change (a): compared with vehicle control: −56%
  Licking time (seconds) mean ± SEM: 128.2 ± 28.0 s
  No. of flinches % change (a): compared with vehicle control: −35%
  No. of flinches mean ± SEM: 97.2 ± 16.0
  decrease in the number of flinches as compared with vehicle controls: 35%
  decrease in the time spent licking as compared with vehicle controls: 56%
[2]; [9]
  Licking time % change (a): compared with vehicle control: −30%
  Licking time (seconds) mean ± SEM: 185.2 ± 31.7 s
  No. of flinches % change (a): compared with vehicle control: +5%
  No. of flinches mean ± SEM: 158.2 ± 15.6
  decrease in the time spent licking: 30%
  effects on number of flinches and time spent licking: no significant effects
[2]; [10]
  Licking time % change (a): compared with vehicle control: −4%
  Licking time (seconds) mean ± SEM: 168.5 ± 23.9 s
  No. of flinches % change (a): compared with vehicle control: −31%
  No. of flinches mean ± SEM: 113.9 ± 23.2
  decrease in the number of flinches as compared with vehicle controls: 31%
  effect on the time spent licking: no clear effects
[2]; [11]
  Licking time % change (a): compared with vehicle control: −52%
  Licking time (seconds) mean ± SEM: 85.1 ± 19.1 s
  No. of flinches % change (a): compared with vehicle control: −48%
  No. of flinches mean ± SEM: 85.8 ± 14.4
  decrease in the number of flinches as compared with vehicle controls: 48%
  decrease in the time spent licking: 52%
[2]; [12]
  Licking time % change (a): compared with vehicle control: −9%
  Licking time (seconds) mean ± SEM: 174.7 ± 20.4 s
  No. of flinches % change (a): compared with vehicle control: −13%
  No. of flinches mean ± SEM: 99.2 ± 16.6
  effect on the time spent licking: no clear effects
[2]; [13]
  Licking time % change (a): compared with vehicle control: −59%
  Licking time (seconds) mean ± SEM: 78.9 ± 20.4 s
  No. of flinches % change (a): compared with vehicle control: −12%
  No. of flinches mean ± SEM: 100.3 ± 22.3
  decrease in the time spent licking: 59%
[2]; Example 7, lacosamide 10 and 20 mg/kg i.p.
  effect on the number of flinches as compared with vehicle controls: did not clearly affect
[3]; 10 mg/kg i.p.
  MPE (maximal possible effect) on muscle pressure hyperalgesia, versus vehicle: significantly different from vehicle
[3]; 30 mg/kg i.p.
  MPE (maximal possible effect) on muscle pressure hyperalgesia, versus vehicle: significantly different from vehicle
  reversal of muscular mechanical hyperalgesia (withdrawal threshold to muscle pressure): full reversal
[3]; 30 mg/kg i.p., listed as lacosamide
  reversal of muscular mechanical hyperalgesia (withdrawal threshold to muscle pressure): complete reversal
[3]; paw pressure test
  effect on muscle pain in comparison to pregabalin and gabapentin: stronger effect
[4]; day 3, 30 mg/kg (lacosamide p.o., diclofenac s.c.)
  tactile allodynia of iodoacetate-treated rats: improved
[4]; day 7, 30 mg/kg (lacosamide p.o., diclofenac s.c.)
  tactile allodynia of iodoacetate-treated rats: improved
[4]; day 14, 30 mg/kg (lacosamide p.o., diclofenac s.c.)
  tactile allodynia of iodoacetate-treated rats: not on day 14
[4]; lower doses of lacosamide (3, 10 mg/kg p.o.)
  tactile allodynia of iodoacetate-treated rats: showed a trend for such improvement
[5]; day 3, 3 mg/kg (lacosamide p.o., morphine s.c.)
  mechanical hyperalgesia (paw pressure withdrawal threshold) compared to iodoacetate/vehicle treated animals: increase in paw pressure withdrawal threshold
[5]; 3 mg/kg (lacosamide p.o., morphine s.c.)
  mechanical hyperalgesia (paw pressure withdrawal threshold): reduced mechanical hyperalgesia
[5]; 30 mg/kg (lacosamide p.o., diclofenac s.c.)
  mechanical hyperalgesia (paw pressure withdrawal threshold): reduced mechanical hyperalgesia
